Experimental data taken from PubChem BioAssay (NCI).
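Growth conditions: 96-well plates. Treatment: test compound, 48 hours, 5 concentrations. Analysis: linear interpolation between bracketing concentrations; unreached endpoints set to highest concentration. GI50 = concentration required for 50% inhibition of growth. TGI is the concentration that stops growth completely.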

Experiments:
Experiment in all cases: growth of human tumour cells (NCI), 48 h; in the data active = GI50 below about 0.43 µM; inactive = the rest
[1] = system: RXF 393 renal
[2] = system: SK-MEL-28 melanoma
[3] = system: NCI-H23 lung
[4] = system: SF-539 CNS
[5] = system: EKVX NSCLC
[6] = system: HT29 colon
[7] = system: NCI-H460 lung
[8] = system: SW-620 colon
[9] = system: MCF7 breast
[10] = system: MDA-MB-468 breast
[11] = system: DU-145 prostate
[12] = system: HCC-2998 colon
[13] = system: K-562 leukemia
[14] = system: A498 renal
[15] = system: OVCAR-8 ovarian
[16] = system: MALME-3M melanoma
[17] = system: BT-549 breast
[18] = system: PC-3 prostate
[19] = system: SK-MEL-2 melanoma
[20] = system: UACC-257 melanoma
[21] = system: SR leukemia
[22] = system: HL-60(TB) leukemia
[23] = system: NCI-H226 lung
[24] = system: UO-31 renal
[25] = system: MDA-MB-435
[26] = system: CCRF-CEM leukemia
[27] = system: LOX IMVI melanoma
[28] = system: NCI-H522 lung
[29] = system: SN12C renal
[30] = system: HOP-92 NSCLC
[31] = system: SF-295 CNS
[32] = system: IGROV1 ovarian
[33] = system: COLO 205 colon
[34] = system: SF-268 CNS
[35] = system: NCI/ADR-RES ovarian
[36] = system: HS 578T breast
[37] = system: CAKI-1 renal
[38] = system: HCT-116 colon
[39] = system: SK-OV-3 ovarian
[40] = system: T-47D breast
[41] = system: MDA-MB-231 breast
[42] = system: A549 NSCLC
[43] = system: TK-10 renal
[44] = system: RPMI-8226 leukemia
[45] = system: SNB-19 CNS
[46] = system: HCT-15 colon
[47] = system: M14 melanoma
[48] = system: SK-MEL-5 melanoma
[49] = system: HOP-62 NSCLC
[50] = system: MOLT-4 leukemia
[51] = system: UACC-62 melanoma
[52] = system: OVCAR-5 ovarian
[53] = system: U251 CNS
[54] = system: KM12 colon
[55] = system: OVCAR-3 ovarian

N/C(=N\c1nc2ccc([N+](=O)[O-])cc2s1)NC(=O)Nc1ccccc1Cl
17.5 µM: TGI [30]
38.5 µM: TGI [47]
13.1 µM: TGI [10]
> 100 µM: TGI [1] | TGI [2] | TGI [3] | TGI [5] | TGI [6] | TGI [8] | TGI [9] | TGI [11] | TGI [12] | TGI [13] | TGI [15] | TGI [16] | TGI [17] | TGI [18] | TGI [20] | TGI [21] | TGI [22] | TGI [23] | TGI [24] | TGI [26] | TGI [27] | TGI [29] | TGI [32] | TGI [34] | TGI [35] | TGI [36] | TGI [37] | TGI [40] | TGI [42] | TGI [43] | TGI [44] | TGI [45] | TGI [46] | TGI [50] | TGI [52] | TGI [54]
50.2 µM: TGI [19]
38.6 µM: TGI [48]
6.18 µM: TGI [53]
38 µM: TGI [14]
3.46 µM: TGI [38]
6.16 µM: TGI [55]
8.71 µM: TGI [7]
94.4 µM: TGI [49]
6.88 µM: TGI [41]
90.9 µM: TGI [31]
41.5 µM: TGI [28]
66.6 µM: TGI [51]
28.2 µM: TGI [4] | TGI [39]
inactive: GI50 [1] 3.79 µM | GI50 [2] 26.2 µM | GI50 [3] 4.55 µM | GI50 [4] 4.55 µM | GI50 [5] 12.4 µM | GI50 [6] 13.9 µM | GI50 [7] 3.1 µM | GI50 [8] 5.11 µM | GI50 [9] 7.69 µM | GI50 [10] 3.16 µM | GI50 [11] 5.63 µM | GI50 [12] 61.4 µM | GI50 [13] 3.56 µM | GI50 [14] 4.53 µM | GI50 [15] 3.9 µM | GI50 [16] 4.56 µM | GI50 [17] 4.07 µM | GI50 [18] 28.9 µM | GI50 [19] 23 µM | GI50 [20] 45.5 µM | GI50 [21] 2170 nM | GI50 [22] 22.4 µM | GI50 [23] 5 µM | GI50 [24] 3.19 µM | GI50 [25] 2260 nM | GI50 [26] 46.9 µM | GI50 [27] 9.3 µM | GI50 [28] 3.46 µM | GI50 [29] 4.2 µM | GI50 [30] 2970 nM | GI50 [31] 17.6 µM | GI50 [32] 9.77 µM | GI50 [33] 6.91 µM | GI50 [34] 15.1 µM | GI50 [35] 3.97 µM | GI50 [36] 12.1 µM | GI50 [37] 3.58 µM | GI50 [38] 1690 nM | GI50 [39] 6.63 µM | GI50 [40] 2710 nM | GI50 [41] 2450 nM | GI50 [42] 3.09 µM | GI50 [43] 3.6 µM | GI50 [44] 72.2 µM | GI50 [45] 10.2 µM | GI50 [46] 6.92 µM | GI50 [47] 13.1 µM | GI50 [48] 11.4 µM | GI50 [49] 10.8 µM | GI50 [50] 40 µM | GI50 [51] 14.9 µM | GI50 [52] 4.12 µM | GI50 [53] 2300 nM | GI50 [54] 6.95 µM | GI50 [55] 2410 nM
7.77 µM: TGI [25]
76.2 µM: TGI [33]
